15 molecules from PubChem BioAssay AID504458 (NMMLSC, 2011) can be followed below.

Molecules are shown by their SMILES. Active and inactive are the calls of the source. The rule behind the calls is not given here.

The target in this experiment is General amino acid permease AGP1 (Saccharomyces cerevisiae (strain ATCC 204508 / S288c)) (UniProt P25376). In words: AGP1-GFP fusion level modulation in yeast, dose response, TOR pathway, S. cerevisiae, flow cytometry, KU SAR set 2, multiplex (AID 504458). Particulars: flow cytometry fluorescence, 3 h.
General amino acid permease AGP1 (Saccharomyces cerevisiae (strain ATCC 204508 / S288c)), sequence (P25376 whole entry, looked up, the tested form may be a part): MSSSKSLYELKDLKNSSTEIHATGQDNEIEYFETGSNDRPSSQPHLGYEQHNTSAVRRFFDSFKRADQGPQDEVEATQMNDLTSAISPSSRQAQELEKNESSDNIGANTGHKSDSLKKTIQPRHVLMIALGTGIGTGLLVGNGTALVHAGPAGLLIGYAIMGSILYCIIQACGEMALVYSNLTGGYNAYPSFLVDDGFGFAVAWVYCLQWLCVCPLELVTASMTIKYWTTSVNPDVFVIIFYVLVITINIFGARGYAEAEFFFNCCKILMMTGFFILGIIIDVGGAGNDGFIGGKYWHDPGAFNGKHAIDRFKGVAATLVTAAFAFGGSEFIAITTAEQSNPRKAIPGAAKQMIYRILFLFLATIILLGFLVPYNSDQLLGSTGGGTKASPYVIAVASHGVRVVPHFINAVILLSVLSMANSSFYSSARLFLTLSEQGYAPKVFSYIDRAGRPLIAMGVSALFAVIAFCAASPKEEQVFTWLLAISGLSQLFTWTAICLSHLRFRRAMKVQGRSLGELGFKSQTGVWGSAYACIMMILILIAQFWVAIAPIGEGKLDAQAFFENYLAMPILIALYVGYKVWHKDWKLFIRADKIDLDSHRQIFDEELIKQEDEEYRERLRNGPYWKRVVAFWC

For the molecule `CNc1nc(N)cc(Nc2ccccc2F)n1`, the EC50 entry was “inactive”.

For `O=[N+]([O-])c1c(NC2CCCCC2)nc(NCc2ccccc2)nc1N1CCOCC1`, the EC50 entry was “inactive”.

As to `CNc1nc(N)c(C(=O)c2ccc(C)c(C)c2)c(Nc2cccc(Cl)c2)n1`, the EC50 result was “inactive”.

Take `CNc1nc(N)c([N+](=O)[O-])c(Nc2ccccc2Br)n1`: the EC50 entry is “inactive”.

Turning to `CCNc1nc(N)c([N+](=O)[O-])c(Nc2cccc(Cl)c2)n1`, the EC50 was 9.69 µM.

As for `CNc1nc(N)c([N+](=O)[O-])c(Nc2cccc(Oc3ccccc3)c2)n1`, the EC50 result is “inactive”.

Take `COc1ccccc1-c1cc(Nc2cc(C)[nH]n2)nc(NCc2ccccc2)n1`: the EC50 entry is “inactive”.

Take `COC(=O)c1cccc(-c2cc(Nc3cc(C)[nH]n3)nc(NCc3ccccc3)n2)c1`: the EC50 entry is “inactive”.

Regarding `Cc1cc(Nc2cc(-c3ccccc3)nc(NCc3ccccc3)n2)n[nH]1`, the EC50 result is “inactive”.

Take `CCOC(=O)c1c(N)nc(NC)nc1Nc1cccc(F)c1`: the EC50 result was “inactive”.

`CNc1nc(N)cc(Nc2cccc(Cl)c2)n1`: the EC50 result was “inactive”.

Turning to `CNc1nc(NC)c([N+](=O)[O-])c(Nc2cccc(Cl)c2)n1`, the EC50 result was “inactive”.

On to `Cc1cc(Nc2cc(Nc3ccccc3)nc(NCc3ccccc3)n2)n[nH]1`, for which the EC50 result was “inactive”.

Take `CCNc1nc(NC2CCCCC2)c([N+](=O)[O-])c(N2CCOCC2)n1`: the EC50 result is “inactive”.

On to `CNc1nc(N)cc(Oc2cccc(Cl)c2)n1`, for which the EC50 entry is “inactive”.
